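How tested: cells in 96-well plates exposed to compound for 48 hours at five concentrations. GI50 marks 50% less growth.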 Calls of active or inactive are those of the source. Rule as the data show it: active = GI50 up to about 1.1 µM and inactive = higher. *1 amine or outer side, *2 acyl side, *3 side chain or, on linkers, in order; H or OH if unused. Where a SMILES comes first, the peptide text is derived from it. Bridges are numbered along the chain shown (N, C = ends). Roman numbers before positions name the chains, in order. [ ]: non-standard residue; d: D form. Actinocin(9to1) = Cc1c2oc3c(C)ccc(C(=O)[*:1])c3nc-2c(C(=O)[*:2])c(N)c1=O; NMeV = CN[CH](C(=O)O)C(C)C; Sar = CNCC(=O)O
Key:
Experiment in all cases: growth of human tumour cells (NCI), 48 h
[1] = test system: A498
[2] = test system: CAKI-1
[3] = test system: HT-29
[4] = test system: KM12
[5] = test system: LOX IMVI
[6] = test system: MOLT-4
[7] = test system: Malme-3M
[8] = test system: NCI-H460
[9] = test system: OVCAR-4
[10] = test system: OVCAR-5
[11] = test system: RPMI-8226
[12] = test system: SF-295
[13] = test system: SK-MEL-28
[14] = test system: SK-MEL-5
[15] = test system: SK-OV-3
[16] = test system: SNB-19
[17] = test system: SNB-75
[18] = test system: SW-620
[19] = test system: UACC-62
[20] = test system: UO-31

| SMILES | GI50 [1] | GI50 [2] | GI50 [3] | GI50 [4] | GI50 [5] | GI50 [6] | GI50 [7] | GI50 [8] | GI50 [9] | GI50 [10] | GI50 [11] | GI50 [12] | GI50 [13] | GI50 [14] | GI50 [15] | GI50 [16] | GI50 [17] | GI50 [18] | GI50 [19] | GI50 [20] |
| --- | --- | --- | --- | --- | --- | --- | --- | --- | --- | --- | --- | --- | --- | --- | --- | --- | --- | --- | --- | --- |
| N/C(=N\O)N/N=C/c1cc2c(cc1Cl)OCO2 | 65.6 µM (inactive) | 37.5 µM (inactive) | 46.1 µM (inactive) | 29.5 µM (inactive) | 31.5 µM (inactive) | 39 µM (inactive) | > 100 µM (inactive) | 34.1 µM (inactive) | 52 µM (inactive) | 32.5 µM (inactive) | 24 µM (inactive) | 22.9 µM (inactive) | 64.4 µM (inactive) | 24.2 µM (inactive) | 26.4 µM (inactive) | > 25.8 µM (inactive) | 30.1 µM (inactive) | 41.8 µM (inactive) | > 50.4 µM (inactive) | 21.4 µM (inactive) |
| CN(C)N1C(=O)C(=O)N(c2cccc3ccccc23)C1=O | > 10 µM (inactive) | > 10 µM (inactive) | > 10 µM (inactive) | > 10 µM (inactive) | > 10 µM (inactive) | > 10 µM (inactive) | > 10 µM (inactive) | > 10 µM (inactive) | > 10 µM (inactive) | > 10 µM (inactive) | > 10 µM (inactive) | > 10 µM (inactive) | > 10 µM (inactive) | > 10 µM (inactive) | > 10 µM (inactive) | > 10 µM (inactive) | > 10 µM (inactive) | > 10 µM (inactive) | > 10 µM (inactive) | > 10 µM (inactive) |
| O=C(O)C(=C\c1ccc2c(c1)OCO2)/C(=C/c1ccc2c(c1)OCO2)C(=O)O | > 100 µM (inactive) | > 100 µM (inactive) | > 100 µM (inactive) | > 100 µM (inactive) | > 100 µM (inactive) | > 100 µM (inactive) | > 100 µM (inactive) | > 100 µM (inactive) | > 100 µM (inactive) | > 100 µM (inactive) | > 100 µM (inactive) | > 100 µM (inactive) | > 100 µM (inactive) | > 100 µM (inactive) | > 100 µM (inactive) | > 100 µM (inactive) | > 100 µM (inactive) | > 100 µM (inactive) | > 100 µM (inactive) | > 100 µM (inactive) |
| Cc1c2cc[n+](C)cc2c(C)c2c1[nH]c1ccccc12 | 2.39 µM (inactive) | 2.69 µM (inactive) | 5.66 µM (inactive) | 0.429 µM (active) | 6.59 µM (inactive) | 0.861 µM (active) | 0.953 µM (active) | 1.89 µM (inactive) | 2.03 µM (inactive) | 10.2 µM (inactive) | 8.02 µM (inactive) | 0.237 µM (active) | 1.62 µM (inactive) | 1.28 µM (inactive) | 4.88 µM (inactive) | 0.301 µM (active) | 0.184 µM (active) | 0.973 µM (active) | 5.18 µM (inactive) | 8.65 µM (inactive) |
| Cc1c2oc3c(C)ccc(C(=O)NC4C(=O)NC(C(C)O)C(=O)N5CCCC5C(=O)N(C)CC(=O)N(C)C(C(C)C)C(=O)OC4C)c3nc-2c(C(=O)NC2C(=O)NC(C(C)O)C(=O)N3CCCC3C(=O)N(C)CC(=O)N(C)C(C(C)C)C(=O)OC2C)c(N)c1=O (stereo not given) (I: TTP[Sar][NMeV] / II: TTP[Sar][NMeV]; ester I:1-I:C, II:1-II:C; linker I:N-II:N via Actinocin(9to1); configuration not given here) | 0.774 µM (active) | 4.07 µM (inactive) | 0.34 µM (active) | 0.185 µM (active) | 0.0493 µM (active) | 0.0527 µM (active) | 0.125 µM (active) | 0.0818 µM (active) | 0.931 µM (active) | 1.95 µM (inactive) | 0.0365 µM (active) | 0.453 µM (active) | 0.147 µM (active) | 0.167 µM (active) | 2.21 µM (inactive) | 0.147 µM (active) | 0.198 µM (active) | 0.067 µM (active) | 0.103 µM (active) | 2 µM (inactive) |
